# Test system: not listed separately
# Experiment: Solubility as noted during the Kv1.3 patch-clamp experiments
# Details: bath solution; 0.1% BSA used to overcome it
row,Compound,Solubility (in words)
1,CN=C(NS(=O)(=O)c1ccc(Cl)cc1)N1C[C@H](c2ccccc2)C(c2ccc(Cl)cc2)=N1 [example compound 1],low solubility

# Biological target: T1, human potassium Kv1.3 (Homo sapiens, UniProt P22001)
# T1 construct: expressed in transfected cells; host or cells: stably transfected cells grown in serum-free medium for CHO cells (CHO inferred from the medium)
# T1 sequence (P22001 whole entry): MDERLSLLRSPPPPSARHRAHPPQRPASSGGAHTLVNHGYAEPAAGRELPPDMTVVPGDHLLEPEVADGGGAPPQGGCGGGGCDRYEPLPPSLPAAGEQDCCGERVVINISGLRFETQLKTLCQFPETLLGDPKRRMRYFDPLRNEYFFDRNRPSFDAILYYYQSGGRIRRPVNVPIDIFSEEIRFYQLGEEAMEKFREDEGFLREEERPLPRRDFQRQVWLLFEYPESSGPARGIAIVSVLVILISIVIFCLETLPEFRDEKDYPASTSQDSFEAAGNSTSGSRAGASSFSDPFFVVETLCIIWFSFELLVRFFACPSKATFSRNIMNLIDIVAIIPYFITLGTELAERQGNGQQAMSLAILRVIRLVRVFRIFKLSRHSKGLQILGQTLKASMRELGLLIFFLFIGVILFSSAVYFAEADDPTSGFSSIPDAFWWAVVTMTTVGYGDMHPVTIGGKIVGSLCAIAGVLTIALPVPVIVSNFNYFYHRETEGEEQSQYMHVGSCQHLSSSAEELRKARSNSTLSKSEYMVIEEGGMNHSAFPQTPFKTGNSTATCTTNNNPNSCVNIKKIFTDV
# Experiment: Potassium Kv1.3 autopatch electrophysiology method, percentage charge inhibition
# Type: cell-based
# Details: concentration not given (compounds made up at 1 μM and 10 μM)
# Method: 2. Electrophysiological Examination of Test Compounds on the Kv1.3-Mediated Potassium Current (Potassium Kv1.3 Autopatch Electrophysiology Method)
# In another set of experiments, the inhibition of the potassium Kv1.3 channel has been measured.
# Cells stably transfected with cDNA for human potassium Kv1.3 (in pcDNA3.1) were grown in Ex-cell 302 serum-free medium for CHO cells, supplemented with 10 μl/ml [100×] glutamine, 500 μg/ml G418, and 1% HT supplement (50×, hypoxanthine and thymidine). The cells were cultured in 350 ml spinner (Techne) spun at 80 rpm, at 37° C. in a water-saturated 5% CO2 incubator. The day of the preparation an aliquot of cells was 5 times diluted in fresh media and counted with a glass counting chamber type Malassez. Then six tubes of 10 ml were prepared at 6×10^6 c/ml. The tubes were then placed at 4° C. until their use.
# The external bathing solution contained (in mM): 150 NaCl, 10 KCl, 1 MgCl2, 3 CaCl2 and 10 HEPES. The pH was adjusted to 7.4 with NaOH. Patch pipettes were filled with a pipette solution of composition (in mM): 100 K-Gluconate, 20 KCl, 1 MgCl2, 1 CaCl2, 10 HEPES, 11 EGTA, 5 ATP-Na2 and 2 Glutathione. The pH was adjusted to 7.2 with KOH. Using fresh 100 ml bathing solution, 0.05% BSA re-suspension solution (0.05 g BSA/100 ml bather) was prepared.
# Compounds were dissolved in DMSO (100%) and made up in the external bather at concentrations of 1 μM and 10 μM. All experiments were conducted at room temperature.
# Two tubes of cell suspension were centrifuged at 1000 rpm for 4 minutes at room temperature. 10 ml of supernatant was carefully aspirated and discarded from each tube, with care being taken not to aspirate the cell pellet sitting at the bottom of the tube. The cell pellet of each tube was broken-up by gentle manual agitation of the tube. 600 μl of re-suspension solution was added to the cell pellet, followed by a gentle trituration step to re-suspend the cells. Once re-suspended, 600 μl of solution per tube was removed from each tube, such that 1.2 ml of cell suspension was obtained in total and placed in a temperature-controlled cell hotel, set at either 4° C. or dew point. Cells were maintained in suspension in the hotel through gentle trituration every 30 s via an automatic cell suspension system.
# Harvard borosilicate capillary glass (GC1507F-10, […], supplied in 100 mm lengths) was cut down to 24 mm lengths using a Dagen capillary cutter. Short (13 mm) patch pipettes were pulled using a 2-stage pull on a specially adapted DMZ pipette puller (Zeitz Instruments). Patch pipettes typically have resistances of 2.3-3.5 MΩ. As the patch pipettes were pulled in batches, pipette tip resistance was measured every tenth pipette using a Tenma meter in order to maintain consistency of tip resistance. Pulled pipettes were stored in Petri dish before filling.
# Each pipette was fully back-filled (from the tip to the end) using the internal pipette solution and the pipette tip was dipped in Sigmacote (Sigma). The pipette was then precisely inserted, tip first, into a pipette holder using a custom-made, pneumatic insertion rig, with the blunt end of the patch pipette sitting proud of the bottom of the pipette holder.
# Whole cell patch-clamp recordings (WCRs) were made using the AP2, which incorporates an EPC9 or EPC10 amplifier (HEKA, Germany) under control of Pulse software (v8.54 or v8.76, HEKA, Germany), the patch plate contact fixture, a Gilson autosampler for cell delivery (the cell sampler), a Gilson autosampler for drug preparation (the auto-sampler), the drug application system (DAS), a feedback-controlled suction device for enabling high resistance GΩ seals to be formed for the whole cell recording mode to be attained, a cell re-suspension system, a temperature-controlled cell hotel, a vacuum line and associated pumps for applying suction and for draining the patch plate wells of bather.
# Under control of the AP2 software, automated patch-clamping was initiated. […]
row,Compound,Inhibition of the Potassium Kv1.3 channel (%)
1,"CCc1c(C(=O)NN2CCCCC2)nn(-c2ccc(Cl)cc2Cl)c1-c1ccc(Br)cc1 [SR-147778, reference compound]",63.7%
2,CON/C(=N\S(=O)(=O)c1ccc(Cl)cc1)N1C[C@H](c2cccc(F)c2)C(c2ccc(Cl)cc2)=N1,76.0%
3,CNC(=NS(=O)(=O)N1CCC(O)CC1)N1CC(c2ccccc2)C(c2ccc(Cl)cc2)=N1 (stereo not shown),92.8%
4,CNC(=NS(=O)(=O)c1ccc(Cl)cc1)N1CC(c2cccnc2)C(c2ccc(Cl)cc2)=N1 (stereo not shown),88.7%
5,"Cc1c(C(=O)NN2CCCCC2)nn(-c2ccc(Cl)cc2Cl)c1-c1ccc(Cl)cc1 [Rimonabant, reference compound]",89.2%
6,CN1CCC(CNC(=NS(=O)(=O)c2ccc(Cl)cc2)N2CC(c3ccccc3)C(c3ccc(Cl)cc3)=N2)C1 (stereo not shown),96.2%
7,CN[C@@H](Cc1c[nH]c2ccccc12)C(=O)N1CC(c2ccccc2)C(c2ccc(Cl)cc2)=N1 (stereo partly shown),87.8%
8,CN(C)CCNC(=NS(=O)(=O)N1CCCCC1)N1CC(c2ccccc2)C(c2ccc(Cl)cc2)=N1 (stereo not shown),58.4%
9,CCN(CC)C(=O)c1cn(-c2ccc(Cl)cc2)c(-c2ccc(Cl)cc2Cl)n1,76.2%
10,"CC1=Nc2ccc(Cl)cc2S(=O)(=O)N1 [Diazoxide, reference compound]",46.5%
11,CNC(=NS(=O)(=O)N(C)C)N1CC(c2cccc(F)c2)C(c2ccc(Cl)cc2)=N1 (stereo not shown),88.1%
12,O=S(=O)(N=C(NCCF)N1CC(c2ccccc2)C(c2ccc(Cl)cc2)=N1)c1ccc(Cl)cc1 (stereo not shown),77.1%
13,"CC1(NC2=NS(=O)(=O)c3sc(Cl)cc3N2)CC1 [NN414, reference compound]",45.1%
14,"CCCCCCC(C)(C)c1cc(OC)c([C@H]2C=C(CO)[C@H]3C[C@@H]2C3(C)C)c(OC)c1 [HU-308, reference compound]",81.2%
15,"Cc1c(C(=O)c2cccc3ccccc23)c2cccc3c2n1[C@H](CN1CCOCC1)CO3 [R(+)-WIN55212-2, reference compound]",81.5%

# Biological target: T1, human potassium Kv1.3
# Experiment: Electrophysiological examination (whole-cell patch-clamp) of the Kv1.3-mediated potassium current in CHO cells
# Type: cell-based
# Details: 10 μM example compound 1, time course
# Method: 1. Electrophysiological Examination of Test Compounds on the KV1.3-Mediated Potassium Current
# cDNA coding for the human potassium Kv1.3 was cloned into a standard vector. A C-terminal epitope-tag was introduced via PCR. The plasmid was sequenced and subsequently introduced into cells and a clonal cell line was established. Expression of protein was analyzed by means of immunofluorescence using antibodies directed against the epitope-tag.
# Experiments were performed in CHO cells stably expressing the potassium Kv1.3 potassium channel. […]
# Patch-clamp experiments were performed in the voltage-clamp mode (Hamill et al., 1981) and whole-cell currents were recorded. Patch pipettes were pulled from borosilicate glass tubes. Current signals were amplified and digitized by an EPC patch-clamp amplifier (HEKA-Electronics, Lambrecht, Germany), stored and analyzed on a personal computer using the Pulse/Pulsefit software (HEKA, Lambrecht, Germany). Experiments were conducted at room temperature.
# For investigating effects and reversibility of a test compound on the Kv1.3 potassium channel, CHO cells were clamped at a holding potential (HP) of −80 mV. The following stimulation protocol (scheme 1) was applied successively and the induced currents have been recorded: […]
# The application protocol of the test compound is depicted in scheme 2. […] Nonspecific current reduction was calculated and serves for correction procedures during data analysis. […] Effect of the test compound was analyzed between stimulus nos. […]
# The appropriate experiment was selected from the data tree in the Pulse software. […] The leak current amplitude during the prepulse to −90 mV and the peak current amplitude of the test-pulse to +40 mV were measured by placing the cursors on the oscilloscope screen (FIG. 3). […]
# FIG. 1: Kv1.3-mediated potassium current. […] The two cursors on the right indicate the range of the test pulse, where the peak current amplitude was evaluated (205-230 ms of the test pulse to +40 mV). The two cursors on the left indicate the area where the mean leak current was evaluated (100-140 ms of the test pulse to −90 mV). […]
row,Compound,Effect on current amplitude (in words)
1,CN=C(NS(=O)(=O)c1ccc(Cl)cc1)N1C[C@H](c2ccccc2)C(c2ccc(Cl)cc2)=N1 [example compound 1],significant current reduction

# Same assay, conditions: in the presence of 0.1% BSA; fit of equation (4)
row,Compound,Hill coefficient nH
1,CN=C(NS(=O)(=O)c1ccc(Cl)cc1)N1C[C@H](c2ccccc2)C(c2ccc(Cl)cc2)=N1 [example compound 1],0.72±0.22

# Same assay, conditions: over the tested concentrations
row,Compound,Effect on outward Kv1.3-mediated current amplitudes (in words)
1,CN=C(NS(=O)(=O)c1ccc(Cl)cc1)N1C[C@H](c2ccccc2)C(c2ccc(Cl)cc2)=N1 [example compound 1],reduced in a concentration-dependent manner

# Reference: patent US20070191357A1, “METHODS OF USING POTASSIUM CHANNEL INHIBITING COMPOUNDS” (priority 2005, published 2007)
